Results reported in patent US6737383B1, “Herbicidal oxadiazolidines” (priority 1999, dated 2004).

Tests used:
giant foxtail = assay: Test B pre/postemergence giant foxtail; format: in vivo, Setaria faberii
Summary of the method: (§1)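 Test chemicals in a non-phytotoxic solvent mixture with surfactant were sprayed preemergence onto planted seeds and postemergence onto plants 2 to 18 cm tall (1- to 4-leaf stage). After twelve to sixteen days in a greenhouse, injury was visually rated against untreated controls from 0 (no effect) to 10 (complete control).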

surinam grass = assay: Test B pre/postemergence surinam grass; format: in vivo, Brachiaria decumbens
Summary of the method: as §1

cocklebur = assay: Test B pre/postemergence cocklebur; format: in vivo, Xanthium strumarium
Summary of the method: as §1

morningglory = assay: Test B pre/postemergence morningglory; format: in vivo, Ipomoea hederacea
Summary of the method: as §1

crabgrass = assay: Test B pre/postemergence crabgrass; format: in vivo, Digitaria sanguinalis
Summary of the method: as §1

bedstraw = assay: Test B pre/postemergence bedstraw; format: in vivo, Galium aparine
Summary of the method: as §1

wheat = assay: Test B pre/postemergence wheat; format: in vivo, Triticum aestivum
Summary of the method: as §1

sugar beet = assay: Test B pre/postemergence sugar beet; format: in vivo, Beta vulgaris
Summary of the method: as §1

velvetleaf = assay: Test B pre/postemergence velvetleaf; format: in vivo, Abutilon theophrasti
Summary of the method: as §1

wild oat = assay: Test B pre/postemergence wild oat; format: in vivo, Avena fatua
Summary of the method: as §1

rice = assay: Test B flood test rice; format: in vivo, Oryza sativa
Summary of the method: (§2)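 Each value is a visual injury score relative to controls, with 10 meaning complete control and 0 no effect. Evaluation took place twelve to sixteen days after the 2-leaf-stage plants were treated and kept in the greenhouse.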

soybean = assay: Test B pre/postemergence soybean; format: in vivo, Glycine max
Summary of the method: as §1

smallflower flatsedge = assay: Test B flood test smallflower flatsedge; format: in vivo, Cyperus difformis
Summary of the method: as §2

blackgrass = assay: Test B pre/postemergence blackgrass; format: in vivo, Alopecurus myosuroides
Summary of the method: as §1

purple nutsedge = assay: Test B pre/postemergence purple nutsedge; format: in vivo, Cyperus rotundus; conditions: Postemergence
Summary of the method: as §1

rape = assay: Test B pre/postemergence rape; format: in vivo, Brassica napus
Summary of the method: as §1

bamyardgrass = assay: Test B flood test barnyardgrass; format: in vivo, Echinochloa crus-galli
Summary of the method: as §2

corn = assay: Test B pre/postemergence corn; format: in vivo, Zea mays
Summary of the method: as §1

pigweed = assay: Test B pre/postemergence pigweed; format: in vivo, Amaranthus retroflexus
Summary of the method: as §1

duck salad = assay: Test B flood test duck salad; format: in vivo, Heteranthera limosa
Summary of the method: as §2

[1] = Preemergence, Rate 62 g/ha, scale of 0 to 10 where 0 is no effect and 10 is complete control
[2] = Preemergence, Rate 250 g/ha, scale of 0 to 10 where 0 is no effect and 10 is complete control
[3] = Preemergence, Rate 500 g/ha, scale of 0 to 10 where 0 is no effect and 10 is complete control
[4] = Rate 125 g/ha, Preemergence, scale of 0 to 10 where 0 is no effect and 10 is complete control
[5] = Rate 500 g/ha, Postemergence, scale 0 to 10, 0 no effect, 10 complete control
[6] = Rate 62 g/ha, Postemergence, scale of 0 to 10 where 0 is no effect and 10 is complete control
[7] = Rate 125 g/ha, Postemergence, scale 0 to 10
[8] = Rate 62 g/ha, headed Pre-emergence (flood test species), scale 0 to 10 (0 no effect, 10 complete control)
[9] = Rate 125 g/ha, Pre-emergence, flood test species, scale 0 to 10 where 0 is no effect and 10 is complete control
[10] = Rate 250 g/ha, Pre-emergence, flood-test species, scale 0 to 10, 0 is no effect, 10 is complete control
[11] = Rate 500 g/ha, Pre-emergence, flood test species, scale 0 to 10 (0 no effect, 10 complete control)

CC(C)N(C(=O)n1oc(=O)n(CC2CC2)c1=O)c1ccc(F)cc1 [Compound 251]
Giant foxtail plant response rating (giant foxtail; [1]): 8 | Giant foxtail plant response rating (giant foxtail; [2]): 10 | Plant response rating, Giant foxtail (giant foxtail; [3]): 10 | Giant foxtail plant response rating (giant foxtail; [4]): 10 | Plant response rating (0 to 10; 0 is no effect, 10 is complete control), Giant foxtail (giant foxtail; Rate 250 g/ha, Postemergence): 7 | Giant foxtail plant response rating (giant foxtail; [5]): 8 | B. signalgrass plant response rating (surinam grass; [1]): 2 | B. signalgrass plant response rating (surinam grass; [2]): 7 | Plant response rating, B. signalgrass (surinam grass; [3]): 9 | B. signalgrass plant response rating (surinam grass; [6]): 0 | B. signalgrass plant response rating (surinam grass; Rate 125 g/ha, Postemergence, scale 0 (no effect) to 10 (complete control)): 0 | B. signalgrass plant response rating (surinam grass; [4]): 3 | Plant response rating (0 to 10; 0 is no effect, 10 is complete control), B. signalgrass (surinam grass; Rate 250 g/ha, Postemergence): 0 | B. signalgrass plant response rating (surinam grass; [5]): 2 | Cocklebur plant response rating (cocklebur; [1]): 0 | Cocklebur plant response rating (cocklebur; [2]): 0 | Plant response rating, Cocklebur (cocklebur; [3]): 0 | Cocklebur plant response rating (cocklebur; [6]): 0 | Cocklebur plant response rating (cocklebur; [7]): 0 | Cocklebur plant response rating (cocklebur; [4]): 0 | Plant response rating (0 to 10; 0 is no effect, 10 is complete control), Cocklebur (cocklebur; Rate 250 g/ha, Postemergence): 0 | Cocklebur plant response rating (cocklebur; [5]): 3 | Morningglory plant response rating (morningglory; [1]): 0 | Morningglory plant response rating (morningglory; [2]): 0 | Plant response rating, Morningglory (morningglory; [3]): 4 | Morningglory plant response rating (morningglory; [4]): 0 | Plant response rating (0 to 10; 0 is no effect, 10 is complete control), Morningglory (morningglory; Rate 250 g/ha, Postemergence): 7 | Morningglory plant response rating (morningglory; [5]): 9 | Crabgrass plant response rating (crabgrass; [1]): 3 | Crabgrass plant response rating (crabgrass; [2]): 9 | Plant response rating, Crabgrass (crabgrass; [3]): 10 | Crabgrass plant response rating (crabgrass; [4]): 7 | Plant response rating (0 to 10; 0 is no effect, 10 is complete control), Crabgrass (crabgrass; Rate 250 g/ha, Postemergence): 6 | Crabgrass plant response rating (crabgrass; [5]): 9 | Bedstraw plant response rating (bedstraw; [1]): 0 | Bedstraw plant response rating (bedstraw; [2]): 10 | Plant response rating, Bedstraw (bedstraw; [3]): 10 | Bedstraw plant response rating (bedstraw; [6]): 2 | Bedstraw plant response rating (bedstraw; [7]): 6 | Bedstraw plant response rating (bedstraw; [4]): 0 | Plant response rating (0 to 10; 0 is no effect, 10 is complete control), Bedstraw (bedstraw; Rate 250 g/ha, Postemergence): 7 | Bedstraw plant response rating (bedstraw; [5]): 9 | Wheat plant response rating (wheat; [1]): 0 | Wheat plant response rating (wheat; [2]): 0 | Plant response rating, Wheat (wheat; [3]): 8 | Wheat plant response rating (wheat; [4]): 0 | Wheat plant response rating (wheat; [5]): 2 | Sugarbeets plant response rating (sugar beet; [1]): 6 | Sugarbeets plant response rating (sugar beet; [2]): 10 | Plant response rating, Sugarbeets (sugar beet; [3]): 10 | Sugarbeets plant response rating (sugar beet; [4]): 10 | Sugarbeets plant response rating (sugar beet; [5]): 2 | Velvetleaf plant response rating (velvetleaf; [1]): 0 | Velvetleaf plant response rating (velvetleaf; [2]): 5 | Plant response rating, Velvetleaf (velvetleaf; [3]): 7 | Velvetleaf plant response rating (velvetleaf; [4]): 4 | Velvetleaf plant response rating (velvetleaf; [5]): 0 | Wild oats plant response rating (wild oat; [1]): 0 | Wild oats plant response rating (wild oat; [2]): 8 | Plant response rating, Wild oats (wild oat; [3]): 9 | Wild oats plant response rating (wild oat; [4]): 6 | Wild oats plant response rating (wild oat; [5]): 0 | Rice plant response rating (rice; [8]): 0 | Rice plant response rating (rice; [9]): 0 | Rice plant response rating (rice; [10]): 0 | Rice plant response rating (rice; [11]): 0 | Soybean plant response rating (soybean; [1]): 0 | Soybean plant response rating (soybean; [2]): 0 | Plant response rating, Soybean (soybean; [3]): 0 | Soybean plant response rating (soybean; [4]): 0 | Soybean plant response rating (soybean; [5]): 6 | S. Flatsedge plant response rating (smallflower flatsedge; [8]): 0 | S. Flatsedge plant response rating (smallflower flatsedge; [9]): 0 | S. Flatsedge plant response rating (smallflower flatsedge; [10]): 0 | S. Flatsedge plant response rating (smallflower flatsedge; [11]): 0 | Blackgrass plant response rating (blackgrass; [1]): 6 | Blackgrass plant response rating (blackgrass; [2]): 9 | Plant response rating, Blackgrass (blackgrass; [3]): 10 | Blackgrass plant response rating (blackgrass; [6]): 0 | Blackgrass plant response rating (blackgrass; [7]): 4 | Blackgrass plant response rating (blackgrass; [4]): 8 | Plant response rating (0 to 10; 0 is no effect, 10 is complete control), Blackgrass (blackgrass; Rate 250 g/ha, Postemergence): 8 | Blackgrass plant response rating (blackgrass; [5]): 8 | Plant response rating (0 to 10; 0 is no effect, 10 is complete control), Nutsedge (purple nutsedge; Rate 250 g/ha): 0 | Nutsedge plant response rating (purple nutsedge; Rate 500 g/ha, scale 0 to 10, 0 no effect, 10 complete control): 0 | Rape plant response rating (rape; [1]): 0 | Rape plant response rating (rape; [2]): 9 | Plant response rating, Rape (rape; [3]): 10 | Rape plant response rating (rape; [4]): 9 | Plant response rating (0 to 10; 0 is no effect, 10 is complete control), Rape (rape; Rate 250 g/ha, Postemergence): 0 | Rape plant response rating (rape; [5]): 0 | Barnyardgrass plant response rating (bamyardgrass; [8]): 0 | Barnyardgrass plant response rating (bamyardgrass; [9]): 0 | Barnyardgrass plant response rating (bamyardgrass; [10]): 0 | Barnyardgrass plant response rating (bamyardgrass; [11]): 0 | Corn plant response rating (corn; [1]): 0 | Corn plant response rating (corn; [2]): 0 | Plant response rating, Corn (corn; [3]): 5 | Corn plant response rating (corn; [6]): 0 | Corn plant response rating (corn; [7]): 0 | Corn plant response rating (corn; [4]): 0 | Plant response rating (0 to 10; 0 is no effect, 10 is complete control), Corn (corn; Rate 250 g/ha, Postemergence): 0 | Corn plant response rating (corn; [5]): 0 | Redroot pigweed plant response rating (pigweed; [1]): 0 | Redroot pigweed plant response rating (pigweed; [2]): 10 | Plant response rating, Redroot pigweed (pigweed; [3]): 10 | Redroot pigweed plant response rating (pigweed; [4]): 5 | Plant response rating (0 to 10; 0 is no effect, 10 is complete control), Redroot pigweed (pigweed; Rate 250 g/ha, Postemergence): 2 | Redroot pigweed plant response rating (pigweed; [5]): 4 | Ducksalad plant response rating (duck salad; [8]): 0 | Ducksalad plant response rating (duck salad; [9]): 0 | Ducksalad plant response rating (duck salad; [10]): 0 | Ducksalad plant response rating (duck salad; [11]): 0
